The text below walks through data of PubChem BioAssay (NCI).

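Cells were grown in 96-well plates and exposed to each compound for 48 hours at five concentrations; endpoints were interpolated linearly between bracketing concentrations, or set to the highest concentration if not reached. TGI: concentration producing complete growth inhibition.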

The test system of one assay is OVCAR-3 ovarian. Put plainly: growth of human tumour cells (NCI), 48 h.
In turn, `CCOc1cnc(C(O)(c2ccccc2)c2ccccc2)o1` yielded a TGI of more than 100 µM.
The same measure, in the same setting: for `COC(CN(C)C(=S)Nc1cccc2ccccc12)OC` the value was more than 10 µM.
`Cc1ccc(OCC2OC(n3cnc4c(Cl)nc(Nc5cc(Cl)cc(Cl)c5)nc43)CC2Oc2ccc(C)cc2)cc1` (configuration not stated): the TGI was more than 100 µM.

For another assay, the system named is OVCAR-4 ovarian. The experiment in a line: growth of human tumour cells (NCI), 48 h.
With `COC1(OC)CCc2c(sc3ncnc(Nc4cccc(Br)c4)c23)C1`, the TGI was more than 100 µM.
On the same count and under the same terms, for `C=CCC(CCC(C)=O)(C(=O)OCC)C(=O)OCC` the value was more than 100 µM.
For the molecule `CC(C)C(Cl)CCC(C)(Cl)C(=O)CBr` (configuration not stated), the TGI stood at 12.7 µM.
Take `Clc1ccc(C=Nc2ccc(Oc3ccc(Cl)cc3)c(Cl)c2)cc1`: the TGI stood at 76.1 µM.
`COC(=O)[C@H](Cc1ccccc1)NC(=O)c1ccc(CNC(=O)/C=C/c2csc(-c3ccccc3)n2)cc1` had a TGI of more than 71 µM.
`N#Cc1ccccc1OCCOc1ccccc1C#N` yielded a TGI of more than 100 µM.
Same read-out and setting: for `CCN(/C=C1/C(=O)C(c2ccccc2)N(c2ccccc2)C1=O)CC` (configuration not stated) the value was more than 10 µM; for `CCOC(=O)c1cn(CC)c(=O)n2c1nc1ccccc12`, more than 100 µM; for `Cc1cccc2sc(NC(=O)NS(=O)(=O)n3cnc4ccccc43)nc12`, more than 100 µM.
Still for that read-out and setting: for `COC(=O)C1CCC(=O)N1CN(C(C)=O)c1cccc(O)c1` (configuration not stated) the value was more than 100 µM; for `COc1ccc(-c2oc3cc(-c4cc5oc(-c6ccc(OC)cc6)c(-c6ccc(OC)cc6)c5cc4OC)c(OC)cc3c2-c2ccc(OC)cc2)cc1`, more than 100 µM; for `COc1ccc2nc3c(c(N)c2c1)C1CCC3C1(C)C` (configuration not stated), more than 100 µM.
`Oc1c(N2CCCCC2)cc(-c2cc(N3CCCCC3)c(O)c3ccccc23)c2ccccc12`: the TGI amounted to 44.9 µM.
For the molecule `C[C@H]1CC[C@@]2(OC1)O[C@H]1C[C@H]3[C@@H]4CC[C@@H]5C[C@@H](OC6OC(CO)C(O)C(O)C6OC6OC(CO)C(O)C(O)C6O)CC[C@]5(C)[C@H]4CC[C@]3(C)[C@H]1[C@@H]2C` (some centres not stated), the TGI worked out at 4.08 µM.
`O=C(NCCC1CNc2ccccc21)OCc1ccccc1` (configuration not stated): the TGI was more than 100 µM.
The same measure, in the same setting: for `c1cc(-c2ccc(-c3ccsc3)s2)cs1` the value was 57.5 µM.
Take `Cc1cc(N(CCC#N)CCC#N)ccc1/C(N=Nc1ccccc1)=N\NC(=O)c1cc(Cl)ccc1O`: the TGI is 65.4 µM.
On to `Cc1ccc(S[C@@](C=O)(NC(=O)OCc2ccccc2)C(F)(F)F)cc1`, for which the TGI is more than 100 µM.
On the same count and under the same terms, for `CCOc1cnc(C(O)(c2ccccc2)c2ccccc2)o1` the value was more than 100 µM; for `COC(CN(C)C(=S)Nc1cccc2ccccc12)OC`, more than 10 µM; for `CCOC(=O)C1(C/C=C\CBr)CCCC1=O` (configuration not stated), more than 100 µM.
In the case of `Cc1ccc(OCC2OC(n3cnc4c(Cl)nc(Nc5cc(Cl)cc(Cl)c5)nc43)CC2Oc2ccc(C)cc2)cc1` (configuration not stated), the TGI was determined as 59.2 µM.
On the same count and under the same terms, for `O=c1c(-c2ccccc2)nnc2n(Cc3ccccc3)c3ccccc3n12` the value was more than 100 µM.

Another assay has as its system OVCAR-5 ovarian. The experiment in a line: growth of human tumour cells (NCI), 48 h.
For `COC1(OC)CCc2c(sc3ncnc(Nc4cccc(Br)c4)c23)C1`, the TGI is 51.4 µM.
In turn, `C=CCC(CCC(C)=O)(C(=O)OCC)C(=O)OCC` registered a TGI of more than 100 µM.
The same measure, in the same setting: for `CC(C)C(Cl)CCC(C)(Cl)C(=O)CBr` (configuration not stated) the value was 26.7 µM.
Same read-out and setting: for `Clc1ccc(C=Nc2ccc(Oc3ccc(Cl)cc3)c(Cl)c2)cc1` the value was more than 100 µM; for `COC(=O)[C@H](Cc1ccccc1)NC(=O)c1ccc(CNC(=O)/C=C/c2csc(-c3ccccc3)n2)cc1`, more than 100 µM.
On the same count and under the same terms, for `N#Cc1ccccc1OCCOc1ccccc1C#N` the value was more than 100 µM; for `CCN(/C=C1/C(=O)C(c2ccccc2)N(c2ccccc2)C1=O)CC` (configuration not stated), more than 10 µM; for `CCOC(=O)c1cn(CC)c(=O)n2c1nc1ccccc12`, more than 100 µM.
Turning to `Cc1cccc2sc(NC(=O)NS(=O)(=O)n3cnc4ccccc43)nc12`, the TGI is 89.4 µM.
On the same count and under the same terms, for `COC(=O)C1CCC(=O)N1CN(C(C)=O)c1cccc(O)c1` (configuration not stated) the value was more than 100 µM; for `COc1ccc(-c2oc3cc(-c4cc5oc(-c6ccc(OC)cc6)c(-c6ccc(OC)cc6)c5cc4OC)c(OC)cc3c2-c2ccc(OC)cc2)cc1`, more than 100 µM.
Take `COc1ccc2nc3c(c(N)c2c1)C1CCC3C1(C)C` (configuration not stated): the TGI is more than 100 µM.
Still for that read-out and setting: for `Oc1c(N2CCCCC2)cc(-c2cc(N3CCCCC3)c(O)c3ccccc23)c2ccccc12` the value was more than 100 µM; for `C[C@H]1CC[C@@]2(OC1)O[C@H]1C[C@H]3[C@@H]4CC[C@@H]5C[C@@H](OC6OC(CO)C(O)C(O)C6OC6OC(CO)C(O)C(O)C6O)CC[C@]5(C)[C@H]4CC[C@]3(C)[C@H]1[C@@H]2C` (some centres not stated), 3.45 µM.
The same measure, in the same setting: for `O=C(NCCC1CNc2ccccc21)OCc1ccccc1` (configuration not stated) the value was more than 100 µM.
For the molecule `c1cc(-c2ccc(-c3ccsc3)s2)cs1`, the TGI was more than 100 µM.
The same measure, in the same setting: for `Cc1ccc(S[C@@](C=O)(NC(=O)OCc2ccccc2)C(F)(F)F)cc1` the value was 54.8 µM.
In turn, `CCOc1cnc(C(O)(c2ccccc2)c2ccccc2)o1` came in with a TGI of more than 100 µM.
On the same count and under the same terms, for `CCOC(=O)C1(C/C=C\CBr)CCCC1=O` (configuration not stated) the value was more than 100 µM.
The same measure, in the same setting: for `Cc1ccc(OCC2OC(n3cnc4c(Cl)nc(Nc5cc(Cl)cc(Cl)c5)nc43)CC2Oc2ccc(C)cc2)cc1` (configuration not stated) the value was more than 100 µM.
On the same count and under the same terms, for `O=c1c(-c2ccccc2)nnc2n(Cc3ccccc3)c3ccccc3n12` the value was more than 100 µM.

The next assay relates to OVCAR-8 ovarian. The experiment in a line: growth of human tumour cells (NCI), 48 h.
On to `COC1(OC)CCc2c(sc3ncnc(Nc4cccc(Br)c4)c23)C1`, for which the TGI is more than 100 µM.
Molecule `C=CCC(CCC(C)=O)(C(=O)OCC)C(=O)OCC` returned a TGI of more than 100 µM.
Same read-out and setting: for `CC(C)C(Cl)CCC(C)(Cl)C(=O)CBr` (configuration not stated) the value was more than 100 µM; for `Clc1ccc(C=Nc2ccc(Oc3ccc(Cl)cc3)c(Cl)c2)cc1`, more than 100 µM; for `COC(=O)[C@H](Cc1ccccc1)NC(=O)c1ccc(CNC(=O)/C=C/c2csc(-c3ccccc3)n2)cc1`, more than 65.4 µM.
Still for that read-out and setting: for `N#Cc1ccccc1OCCOc1ccccc1C#N` the value was more than 100 µM; for `CCN(/C=C1/C(=O)C(c2ccccc2)N(c2ccccc2)C1=O)CC` (configuration not stated), more than 10 µM; for `CCOC(=O)c1cn(CC)c(=O)n2c1nc1ccccc12`, more than 100 µM.
The molecule `Cc1cccc2sc(NC(=O)NS(=O)(=O)n3cnc4ccccc43)nc12` returned a TGI of 67.1 µM.
`COC(=O)C1CCC(=O)N1CN(C(C)=O)c1cccc(O)c1` (configuration not stated) registered a TGI of more than 100 µM.
Consider `COc1ccc(-c2oc3cc(-c4cc5oc(-c6ccc(OC)cc6)c(-c6ccc(OC)cc6)c5cc4OC)c(OC)cc3c2-c2ccc(OC)cc2)cc1`, for which the TGI is more than 100 µM.
`COc1ccc2nc3c(c(N)c2c1)C1CCC3C1(C)C` (configuration not stated) gave a TGI of more than 100 µM.
On the same count and under the same terms, for `Oc1c(N2CCCCC2)cc(-c2cc(N3CCCCC3)c(O)c3ccccc23)c2ccccc12` the value was more than 100 µM; for `C[C@H]1CC[C@@]2(OC1)O[C@H]1C[C@H]3[C@@H]4CC[C@@H]5C[C@@H](OC6OC(CO)C(O)C(O)C6OC6OC(CO)C(O)C(O)C6O)CC[C@]5(C)[C@H]4CC[C@]3(C)[C@H]1[C@@H]2C` (some centres not stated), 4.26 µM; for `O=C(NCCC1CNc2ccccc21)OCc1ccccc1` (configuration not stated), more than 100 µM.
For the molecule `c1cc(-c2ccc(-c3ccsc3)s2)cs1`, the TGI was more than 100 µM.
The same measure, in the same setting: for `Cc1cc(N(CCC#N)CCC#N)ccc1/C(N=Nc1ccccc1)=N\NC(=O)c1cc(Cl)ccc1O` the value was 81.5 µM; for `Cc1ccc(S[C@@](C=O)(NC(=O)OCc2ccccc2)C(F)(F)F)cc1`, 43.7 µM.
Still for that read-out and setting: for `CCOc1cnc(C(O)(c2ccccc2)c2ccccc2)o1` the value was more than 100 µM.
Still for that read-out and setting: for `COC(CN(C)C(=S)Nc1cccc2ccccc12)OC` the value was more than 10 µM.
